This series in a line: Au(I)-catalysed intramolecular Trp C2-H alkynylation: peptide-EBX (4-ethynylbenzoyl bis-CF3-benziodoxole on Lys side chain or N-terminus) + AuCl·Me2S, open flask. To be noted: HFIP, 5.0 mM, 25.0 °C, 0.17 h.

As to `C[C@@H]1NC(=O)[C@H](CC(=O)O)NC(=O)c2ccc(cc2)C#Cc2[nH]c3ccccc3c2C[C@@H](C(N)=O)NC(=O)[C@H](CCC(=O)O)NC(=O)CNC(=O)[C@H]([C@@H](C)O)NC(=O)[C@H](CCC(=O)O)NC1=O` [EBX-D-A-E-T-G-E-W-NH2], for the setting “from C[C@H](NC(=O)[C@H](CC(=O)O)NC(=O)c1ccc(C#CI2OC(C(F)(F)F)(C(F)(F)F)c3ccccc32)cc1)C(=O)N[C@@H](CCC(=O)O)C(=O)N[C@H](C(=O)NCC(=O)N[C@@H](CCC(=O)O)C(=O)N[C@@H](Cc1c[nH]c2ccccc12)C(N)=O)[C@@H](C)O, 30-membered ring”, the ring closure, isolated yield is 49%.
For `N=C(N)NCCC[C@@H]1NC(=O)CNC(=O)c2ccc(cc2)C#Cc2[nH]c3ccccc3c2C[C@@H](C(N)=O)NC(=O)[C@H](Cc2ccccc2)NC(=O)[C@H](CC(=O)O)NC(=O)CNC1=O` [EBX-G-R-G-D-F-W-NH2], the ring closure, isolated yield (from N=C(N)NCCC[C@H](NC(=O)CNC(=O)c1ccc(C#CI2OC(C(F)(F)F)(C(F)(F)F)c3ccccc32)cc1)C(=O)NCC(=O)N[C@@H](CC(=O)O)C(=O)N[C@@H](Cc1ccccc1)C(=O)N[C@@H](Cc1c[nH]c2ccccc12)C(N)=O, 27-membered ring) came out at 63%.
On to `CC(=O)N[C@H]1CCCCNC(=O)c2ccc(cc2)C#Cc2[nH]c3ccccc3c2C[C@@H](C(=O)O)NC(=O)[C@H](Cc2ccccc2)NC(=O)[C@H](C)NC(=O)[C@H](CCC(=O)O)NC1=O` [Ac-K(EBX)-E-A-F-W-OH], for which, where the note is “from CC(=O)N[C@@H](CCCCNC(=O)c1ccc(C#CI2OC(C(F)(F)F)(C(F)(F)F)c3ccccc32)cc1)C(=O)N[C@@H](CCC(=O)O)C(=O)N[C@@H](C)C(=O)N[C@@H](Cc1ccccc1)C(=O)N[C@@H](Cc1c[nH]c2ccccc12)C(=O)O, 28-membered ring”, the ring closure, isolated yield was found to be 37%.
Turning to `N=C(N)NCCC[C@@H]1NC(=O)[C@H](CCCNC(=N)N)NC(=O)[C@H](CCCNC(=N)N)NC(=O)[C@H](CCCNC(=N)N)NC(=O)[C@H](Cc2ccc3ccccc3c2)NC(=O)c2ccc(cc2)C#Cc2[nH]c3ccccc3c2C[C@@H](C(N)=O)NC1=O` [EBX-Nal(2)-R-R-R-R-W-NH2], the ring closure, isolated yield (from N=C(N)NCCC[C@H](NC(=O)[C@H](CCCNC(=N)N)NC(=O)[C@H](CCCNC(=N)N)NC(=O)[C@H](CCCNC(=N)N)NC(=O)[C@H](Cc1ccc2ccccc2c1)NC(=O)c1ccc(C#CI2OC(C(F)(F)F)(C(F)(F)F)c3ccccc32)cc1)C(=O)N[C@@H](Cc1c[nH]c2ccccc12)C(N)=O, 27-membered ring) was found to be 53%.
As for `CC(=O)N[C@H]1CCCCNC(=O)c2ccc(cc2)C#Cc2[nH]c3ccccc3c2C[C@@H](C(=O)O)NC(=O)[C@H](Cc2ccccc2)NC(=O)[C@H](C)NC(=O)[C@H](CO)NC1=O` [Ac-K(EBX)-S-A-F-W-OH], the ring closure, isolated yield (from CC(=O)N[C@@H](CCCCNC(=O)c1ccc(C#CI2OC(C(F)(F)F)(C(F)(F)F)c3ccccc32)cc1)C(=O)N[C@@H](CO)C(=O)N[C@@H](C)C(=O)N[C@@H](Cc1ccccc1)C(=O)N[C@@H](Cc1c[nH]c2ccccc12)C(=O)O, 28-membered ring) was found to be 67%.
As to `N=C(N)NCCC[C@@H]1NC(=O)[C@H](CCCNC(=N)N)NC(=O)[C@H](CCCNC(=N)N)NC(=O)[C@H](CCCNC(=N)N)NC(=O)[C@H](Cc2ccc3ccccc3c2)NC(=O)[C@H](Cc2ccccc2)NC(=O)c2ccc(cc2)C#Cc2[nH]c3ccccc3c2C[C@@H](C(N)=O)NC1=O` [EBX-F-Nal(2)-R-R-R-R-W-NH2], for the setting “from N=C(N)NCCC[C@H](NC(=O)[C@H](CCCNC(=N)N)NC(=O)[C@H](CCCNC(=N)N)NC(=O)[C@H](CCCNC(=N)N)NC(=O)[C@H](Cc1ccc2ccccc2c1)NC(=O)[C@H](Cc1ccccc1)NC(=O)c1ccc(C#CI2OC(C(F)(F)F)(C(F)(F)F)c3ccccc32)cc1)C(=O)N[C@@H](Cc1c[nH]c2ccccc12)C(N)=O, 30-membered ring”, the ring closure, isolated yield turned out to be 57%.
On to `CC(=O)N[C@H]1CCCCNC(=O)c2ccc(cc2)C#Cc2[nH]c3ccccc3c2C[C@@H](C(=O)O)NC(=O)[C@H](Cc2ccccc2)NC(=O)[C@H](C)NC(=O)[C@H](CC(N)=O)NC1=O` [Ac-K(EBX)-N-A-F-W-OH], for which, for the setting “from CC(=O)N[C@@H](CCCCNC(=O)c1ccc(C#CI2OC(C(F)(F)F)(C(F)(F)F)c3ccccc32)cc1)C(=O)N[C@@H](CC(N)=O)C(=O)N[C@@H](C)C(=O)N[C@@H](Cc1ccccc1)C(=O)N[C@@H](Cc1c[nH]c2ccccc12)C(=O)O, 28-membered ring”, the ring closure, isolated yield came out at 52%.
As for `CC(=O)N[C@H]1CCCCNC(=O)c2ccc(cc2)C#Cc2[nH]c3ccccc3c2C[C@@H](C(=O)O)NC(=O)[C@H](Cc2ccccc2)NC(=O)[C@H](C)NC(=O)[C@H](Cc2c[nH]cn2)NC1=O` [Ac-K(EBX)-H-A-F-W-OH], the ring closure, isolated yield (from CC(=O)N[C@@H](CCCCNC(=O)c1ccc(C#CI2OC(C(F)(F)F)(C(F)(F)F)c3ccccc32)cc1)C(=O)N[C@@H](Cc1c[nH]cn1)C(=O)N[C@@H](C)C(=O)N[C@@H](Cc1ccccc1)C(=O)N[C@@H](Cc1c[nH]c2ccccc12)C(=O)O, 28-membered ring) came to 30%.
For the molecule `CSCC[C@@H]1NC(=O)[C@@H](NC(C)=O)CCCCNC(=O)c2ccc(cc2)C#Cc2[nH]c3ccccc3c2C[C@@H](C(=O)O)NC(=O)[C@H](Cc2ccccc2)NC(=O)[C@H](C)NC1=O` [Ac-K(EBX)-M-A-F-W-OH], the ring closure, isolated yield (from CSCC[C@H](NC(=O)[C@H](CCCCNC(=O)c1ccc(C#CI2OC(C(F)(F)F)(C(F)(F)F)c3ccccc32)cc1)NC(C)=O)C(=O)N[C@@H](C)C(=O)N[C@@H](Cc1ccccc1)C(=O)N[C@@H](Cc1c[nH]c2ccccc12)C(=O)O, 28-membered ring) stood at 0%.
With `C[C@@H]1NC(=O)[C@H](CC(=O)O)NC(=O)CNC(=O)c2ccc(cc2)C#Cc2[nH]c3ccccc3c2C[C@@H](C(N)=O)NC(=O)[C@H](CCC(=O)O)NC(=O)CNC(=O)[C@H]([C@@H](C)O)NC(=O)[C@H](CCC(=O)O)NC1=O` [EBX-G-D-A-E-T-G-E-W-NH2], under “from C[C@H](NC(=O)[C@H](CC(=O)O)NC(=O)CNC(=O)c1ccc(C#CI2OC(C(F)(F)F)(C(F)(F)F)c3ccccc32)cc1)C(=O)N[C@@H](CCC(=O)O)C(=O)N[C@H](C(=O)NCC(=O)N[C@@H](CCC(=O)O)C(=O)N[C@@H](Cc1c[nH]c2ccccc12)C(N)=O)[C@@H](C)O, 33-membered ring”, the ring closure, isolated yield worked out at 47%.
